Assay results published in patent US20250304560A1, “MODULATORS OF NLRP3 INFLAMMASOME AND RELATED PRODUCTS AND METHODS” (Neumora Therapeutics, Inc., priority 2022, published 2025).
Where two headings read alike, the source gives them in different places.

Key:
hERG channels = molecular target: T1, hERG channels (Homo sapiens, UniProt Q12809); assay: hERG assay, whole-cell patch-clamp in CHO-hERG cells; type: cell-based; conditions: for IC50: whole-cell patch-clamp, CHO-hERG cells
T1 construct: host or cells: CHO-hERG cells
T1 sequence (Q12809 whole entry): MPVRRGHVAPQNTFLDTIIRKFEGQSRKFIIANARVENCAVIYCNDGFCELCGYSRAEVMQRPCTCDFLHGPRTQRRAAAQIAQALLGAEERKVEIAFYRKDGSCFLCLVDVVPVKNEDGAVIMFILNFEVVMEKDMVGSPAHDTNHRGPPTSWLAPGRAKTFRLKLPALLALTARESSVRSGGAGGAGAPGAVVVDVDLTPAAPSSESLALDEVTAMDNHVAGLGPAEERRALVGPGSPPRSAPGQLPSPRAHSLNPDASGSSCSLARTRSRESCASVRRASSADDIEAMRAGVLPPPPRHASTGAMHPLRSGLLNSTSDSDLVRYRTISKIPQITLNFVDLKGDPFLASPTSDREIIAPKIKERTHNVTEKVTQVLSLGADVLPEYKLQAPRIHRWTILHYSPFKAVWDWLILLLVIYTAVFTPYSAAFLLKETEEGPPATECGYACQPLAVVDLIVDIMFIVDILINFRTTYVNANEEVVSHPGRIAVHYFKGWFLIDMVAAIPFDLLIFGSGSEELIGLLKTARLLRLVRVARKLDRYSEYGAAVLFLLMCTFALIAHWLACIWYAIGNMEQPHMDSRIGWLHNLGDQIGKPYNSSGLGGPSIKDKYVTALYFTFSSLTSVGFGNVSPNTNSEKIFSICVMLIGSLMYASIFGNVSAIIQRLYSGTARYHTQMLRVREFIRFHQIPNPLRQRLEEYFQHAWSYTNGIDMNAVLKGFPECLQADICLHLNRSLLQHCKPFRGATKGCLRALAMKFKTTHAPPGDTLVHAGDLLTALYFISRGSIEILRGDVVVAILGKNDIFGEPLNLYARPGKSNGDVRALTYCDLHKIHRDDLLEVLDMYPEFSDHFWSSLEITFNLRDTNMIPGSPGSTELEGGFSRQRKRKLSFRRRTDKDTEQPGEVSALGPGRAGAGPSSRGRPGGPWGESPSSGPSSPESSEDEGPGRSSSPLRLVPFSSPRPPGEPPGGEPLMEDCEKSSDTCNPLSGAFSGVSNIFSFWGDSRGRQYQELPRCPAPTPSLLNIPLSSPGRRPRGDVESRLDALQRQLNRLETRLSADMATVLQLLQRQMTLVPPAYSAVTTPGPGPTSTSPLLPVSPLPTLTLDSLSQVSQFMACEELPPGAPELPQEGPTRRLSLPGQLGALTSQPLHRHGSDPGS
Experimental: CHO-hERG cells (Sophion Biosciences (Ballerup, Denmark), subcultured and frozen in WuXi AppTec (Suzhou) Co., Ltd.), stored in liquid nitrogen, were tested and determined to be free from mycoplasma contamination. Cells were not used after the 30th passage. CHO-hERG cells were cultured in a humidified incubator of 5% CO2 (4% to 8%) in air at 37° C. (±2° C.). The cells were recovered with recovery medium (F12 medium with 10% fetal bovine serum), subcultured in complete medium (F12 medium, supplemented with 10% fetal bovine serum, 1% Geneticin® selective antibiotic (G418), 89 μg/mL Hygromycin B (HB)), and the culture medium was switched to recovery medium in the last subculture before patch-clamp experiment.
To determine the compounds' IC50, select compounds (“test articles”) were dissolved into DMSO, and then diluted with ECS to get working solutions. Five concentrations of 0.3, 1, 3, 10, and 30 μM were tested. Two replicate cells for each concentration were tested.
Exponentially growing CHO-hERG cells were collected and suspended in extracellular solution for use. The hERG current was recorded at physiological temperature (33.0° C. to 37.0° C.) using whole-cell patch-clamp techniques. Output signals from the patch-clamp amplifier were digitized and low-pass filtered at 2.9 KHz. The recording was controlled with Patchmaster Pro software. The recording chamber with seeded cells was mounted on an inverted microscope stage. A cell in the recording chamber was randomly selected for testing. The cell was continuously perfused from the perfusion system. A micropipette filled with ICS was used as recording electrode in the manual patch-clamp study. The micropipette was prepared on the day of the patch-clamp experiment using glass capillaries (BF150-117-10, SUTTER INSTRUMENT USA). The pipette resistance (Rp) was within 2 to 5 MΩ with ICS filled. From the holding potential of-80 mV, the voltage was increased to +60 mV for 850 ms to open the hERG channels. After that, the voltage was decreased to-50 mV for 1275 ms, causing a “rebound” or tail current, the peak tail current was measured and collected for data analysis. Finally, the voltage was decreased to the holding potential (−80 mV). This command voltage protocol was repeated every 15 s continuously during the test article application.
During the initial recording period with vehicle control working solution, the peak tail current amplitude was monitored until it had been stable for at least 3 sweeps. Cells were then perfused with test article/positive control working solutions until the peak tail current amplitude reached steady state. Steady state was considered reached when three consecutive super-imposable peak tail currents were collected. At this point, cells were once again perfused with next concentration of test article. One or more test articles/positive control or different concentrations of the same test article were tested on each cell with vehicle control washout until the current amplitude returned to values at least 80% of those measured before application of test article. […] At least 2 replicate cells for each concentration were tested. […] (Milnes, J. T., et al.)
Seal criteria: When acquiring whole-cell configuration, a holding potential (e.g.,-80 mV) was applied while membrane parameters were collected (Cm, Rm and Rs). A “good” whole-cell recording was generally defined as: series resistance (Rs) was less than 10 MΩ; membrane resistance (Rm) was more than 500 MΩ and membrane capacitance (Cm) was less than 100 pF. Current amplitude: The peak current amplitude must be between 400 pA and 5000 pA before the test article/positive control application; otherwise the cell was discarded. Leak criteria: At-80 mV holding potential, the absolute leak current value must be less than 200 pA. The amplitude of current was adjusted with leak current at-80 mV. The sweeps which absolute leak current value was more than 200 pA was not used in data analysis.

IL-6 = IL-6 AlphaLISA in LPS-primed THP1 macrophages; conditions: Homo sapiens
NLRP3 inflammasome = NLRP3 inflammasome (Homo sapiens, UniProt Q96P20); assay: NLRP3 inflammasome activation in THP1 macrophages, IL-1β AlphaLISA
Sequence of NLRP3 inflammasome (Q96P20 whole entry): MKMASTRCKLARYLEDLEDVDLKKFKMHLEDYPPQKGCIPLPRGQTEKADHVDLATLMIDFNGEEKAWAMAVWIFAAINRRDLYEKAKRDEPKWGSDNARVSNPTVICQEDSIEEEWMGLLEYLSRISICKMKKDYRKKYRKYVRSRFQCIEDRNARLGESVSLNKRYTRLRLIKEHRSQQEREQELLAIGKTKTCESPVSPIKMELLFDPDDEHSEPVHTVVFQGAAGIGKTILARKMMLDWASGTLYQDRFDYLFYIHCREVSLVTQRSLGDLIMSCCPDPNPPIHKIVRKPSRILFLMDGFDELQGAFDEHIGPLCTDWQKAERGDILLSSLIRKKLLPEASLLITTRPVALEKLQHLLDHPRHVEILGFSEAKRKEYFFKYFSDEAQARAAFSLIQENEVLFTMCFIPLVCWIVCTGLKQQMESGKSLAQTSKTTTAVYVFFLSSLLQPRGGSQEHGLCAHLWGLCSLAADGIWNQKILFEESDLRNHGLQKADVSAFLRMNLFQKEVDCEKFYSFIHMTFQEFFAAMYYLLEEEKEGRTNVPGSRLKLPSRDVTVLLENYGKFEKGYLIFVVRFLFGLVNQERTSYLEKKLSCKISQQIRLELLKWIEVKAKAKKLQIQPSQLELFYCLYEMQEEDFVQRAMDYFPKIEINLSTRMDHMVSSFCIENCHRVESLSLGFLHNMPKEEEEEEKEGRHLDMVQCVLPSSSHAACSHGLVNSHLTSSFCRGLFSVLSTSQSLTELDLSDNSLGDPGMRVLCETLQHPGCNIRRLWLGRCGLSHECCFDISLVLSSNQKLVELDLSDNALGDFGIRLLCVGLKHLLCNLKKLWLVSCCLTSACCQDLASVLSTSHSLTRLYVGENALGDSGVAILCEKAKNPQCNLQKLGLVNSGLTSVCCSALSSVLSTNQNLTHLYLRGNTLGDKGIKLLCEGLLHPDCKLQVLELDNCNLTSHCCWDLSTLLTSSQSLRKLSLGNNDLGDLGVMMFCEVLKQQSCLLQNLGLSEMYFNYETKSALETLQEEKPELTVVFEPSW

[1] = IL-1β Activity (nM), THP1 macrophages, PMA, LPS priming, nigericin 6.7 uM activation
[2] = THP-1, read-out: IL-6 Activity (μM), THP1 macrophages, PMA, LPS priming, nigericin 6.7 uM
[3] = THP-1, read-out: IL-6 Activity (μM)

IC50 (NLRP3 inflammasome; [1]) | IC50 (IL-6; [2]) | IC50 (IL-6; [3]) | IC50 (NLRP3 inflammasome) | Compound | other results
 |  |  |  | Cc1cc(N[C@@H]2CCCN(C)C2)nnc1-c1ccc(C(F)(F)F)cc1O [A, reference compound] | hERG inhibition (in words) (hERG channels): high; IC50 (hERG channels; Table 11 comparison): ≤ 1 µM; IC50 (IL-6; THP-1, read-out: IL-6 Activity, LPS-primed THP1 macrophages, Table 11 comparison): > 10 µM
< 1 nM |  |  |  | CCc1ccc(-c2nnc(N[C@@H]3CCCN(C)C3)cc2C)c(O)c1 [compound 15] | hERG inhibition (in words) (hERG channels): high; IC50 (hERG channels; 33.0-37.0 °C, Table 10): 3 to 10 µM; IC50 (hERG channels; Table 11 comparison): 3 to 10 µM; IL-1ß activity (in words) (NLRP3 inflammasome): potent; IC50 (NLRP3 inflammasome; IL-1β Activity, THP1 macrophages, Table 11 comparison): < 1 nM
10 to 100 nM | > 10 µM |  |  | Cc1ccc(O)c(-c2nnc(N[C@@H]3CCCN(C)C3)cc2C)c1 [compound 68] | 
1 to 10 nM | 5 to 10 µM |  |  | Cc1cc(N[C@@H]2CCCN(C)C2)nnc1-c1c(C)cccc1O [compound 69] | 
 |  | > 10 µM | 10 to 100 nM | Cc1cc(C[C@@H]2CCCN(C)C2)nnc1-c1ccccc1O [compound 70] | 
 |  | > 10 µM | 10 to 100 nM | Cc1cc(O[C@@H]2CCCN(C)C2)nnc1-c1ccccc1O [compound 71] | 
 |  | > 10 µM | 10 to 100 nM | Cc1cc(F)cc(O)c1-c1ccc(O[C@@H]2CCCN(C)C2)nn1 [compound 72] | 
 |  | > 10 µM | > 1000 nM | Cc1cc(O[C@@H]2CCCN(C)C2)nnc1-c1ccc(C(F)(F)F)cc1O [compound 73, (R)-2-(4-methyl-6-((1-methylpiperidin-3-yl)oxy)pyridazin-3-yl)-5-(trifluoromethyl) phenol] | 
1 to 10 nM | 5 to 10 µM |  |  | Cc1cc(-c2nnc(N[C@@H]3CCCN(C)C3)cc2C)c(O)cc1C(F)(F)F [compound 76] | 
10 to 100 nM | > 10 µM |  |  | Cc1cc(-c2ccc(F)cc2O)nnc1N[C@@H]1CCCN(C)C1 [compound 77] | 
1 to 10 nM | > 10 µM |  |  | Cc1cc(-c2c(C)cccc2O)nnc1N[C@@H]1CCCN(C)C1 [compound 78] | 
100 to 500 nM | < 1 µM |  |  | Cc1cc(-c2cc(C)c(N[C@@H]3CCCN(C)C3)nn2)c(O)cc1F [compound 79] | 
1 to 10 nM | 5 to 10 µM |  |  | Cc1cc(-c2ccc(F)c(C)c2O)nnc1N[C@@H]1CCCN(C)C1 [compound 80] | 
1 to 10 nM | > 10 µM |  |  | Cc1cc(-c2cccc(C)c2O)nnc1N[C@@H]1CCCN(C)C1 [compound 81] | 
10 to 100 nM | < 1 µM |  |  | Cc1ccc(-c2cc(C)c(N[C@@H]3CCCN(C)C3)nn2)c(O)c1 [compound 82] | 
1 to 10 nM | > 10 µM |  |  | Cc1cc(-c2c(C)cc(F)cc2O)nnc1N[C@@H]1CCCN(C)C1 [compound 84] | 
> 1000 nM | > 10 µM |  |  | Cc1cc(-c2ccccc2O)nnc1N[C@@H]1CCCN(CCF)C1 [compound 85] | 
500 to 1000 nM | > 10 µM |  |  | Cc1cc(-c2ccc(F)cc2O)nnc1N[C@@H]1CCCN(CCF)C1 [compound 86] | 
< 1 nM | > 10 µM |  |  | Cc1cc(N(C)[C@@H]2CCCN(C)C2)nnc1-c1ccc(C#N)cc1O [compound 90] | 
10 to 100 nM | > 10 µM |  |  | Cc1cc(-c2ccc(C#N)cc2O)nnc1N[C@@H]1CCCN(C)C1 [compound 91] | 
10 to 100 nM | > 10 µM |  |  | Cc1cc(N[C@@H]2CCCN(C)C2)nnc1-c1ccc(C(=O)O)cc1O [compound 92] | 
> 1000 nM | > 10 µM |  |  | Cc1cc(-c2ccc(C(=O)O)cc2O)nnc1N[C@@H]1CCCN(C)C1 [compound 93] | 
> 1000 nM | > 10 µM |  |  | Cc1cc(N[C@@H]2CC[C@@H](C(=O)O)NC2)nnc1-c1ccccc1O [compound 94] | 
> 1000 nM | > 10 µM |  |  | Cc1cc(N[C@@H]2CC[C@@H](C(=O)O)N(C)C2)nnc1-c1ccccc1O [compound 95] | 
1 to 10 nM | > 10 µM |  |  | Cc1cc(N[C@@H]2CCN(C)C2)nnc1-c1ccc(C(F)(F)F)cc1O [compound 96] | 

IC50 (NLRP3 inflammasome; [1]) | IC50 (IL-6; [2]) | IC50 (IL-6; [3]) | IC50 (NLRP3 inflammasome) | Compound | other results
 |  | > 10 µM | 10 to 100 nM | Cc1cc(N(C)[C@@H]2CCN(C)C2)nnc1-c1ccc(C(F)(F)F)cc1O [compound 97] | 
 |  | > 10 µM | 100 to 500 nM | Cc1cc(-c2ccc(C(F)(F)F)cc2O)nnc1O[C@@H]1CCCN(C)C1 [compound 98] | 
 |  | > 10 µM | > 1000 nM | Cc1cc(-c2ccccc2O)nnc1O[C@@H]1CCCN(C)C1 [compound 99] | 
 |  | > 10 µM | 100 to 500 nM | Cc1cc(O[C@@H]2CCCN(C)C2)nnc1-c1ccc(C#N)cc1O [compound 100] | 
 |  | > 10 µM | > 1000 nM | Cc1cc(-c2ccc(C#N)cc2O)nnc1O[C@@H]1CCCN(C)C1 [compound 101] | 
 |  | > 10 µM | 100 to 500 nM | Cc1cc(CC2CCCN(C)C2)nnc1-c1ccc(C#N)cc1O (stereo not drawn) [compound 102] | 
 |  | > 10 µM | 1 to 10 nM | Cc1cc(C[C@H]2CCCN(C)C2)nnc1-c1ccc(C(F)(F)F)cc1O [compound 104] | 
 |  | > 10 µM | > 1000 nM | Cc1cc(C[C@H]2CCCN(C)C2)nnc1-c1ccccc1O [compound 105] | 
 |  | > 10 µM | > 1000 nM | Cc1cc(C[C@H]2CCCN(C)C2)nnc1-c1ccc(F)cc1O [compound 106, (R)-5-fluoro-2-(4-methyl-6-((1-methylpiperidin-3-yl)methyl)pyridazin-3-yl) phenol] | 
 |  | > 10 µM | < 1 nM | Cc1cc(N[C@@H]2CCCN(C)C2)nnc1-c1ncc(C(F)(F)F)cc1O [compound 107] | 
 |  | > 10 µM | 100 to 500 nM | Cc1cc(N[C@@H]2CCCN(C)C2)nnc1-c1ncccc1O [compound 108] | 
 |  | 5 to 10 µM | 100 to 500 nM | Cc1cc(N[C@@H]2CCCN(C)C2)nnc1-c1ncc(F)cc1O [compound 109] | 
 |  | > 10 µM | 100 to 500 nM | Cc1cc(N2CCC[C@@H](N(C)C)C2)nnc1-c1ccccc1O [compound 111] | 
 |  | > 10 µM | > 1000 nM | Cc1cc(N2CCC[C@@H](N(C)C)C2)nnc1-c1ccc(C#N)cc1O [compound 112] | 
 |  | > 10 µM | > 1000 nM | Cc1cc(NC[C@H]2CCC(F)(F)C2)nnc1-c1ccccc1O [compound 113] | 
 |  | > 10 µM | > 1000 nM | Cc1cc(NC[C@@H]2CCC(F)(F)C2)nnc1-c1ccccc1O [compound 114] | 
 |  | > 10 µM | > 1000 nM | Cc1cc(NCC2CCOCC2)nnc1-c1ccccc1O [compound 115] | 
 |  | > 10 µM | > 1000 nM | Cc1cc(NC[C@H]2CCCO2)nnc1-c1ccccc1O [compound 116] | 
 |  | > 10 µM | 500 to 1000 nM | Cc1cc(NC[C@@H]2CCCO2)nnc1-c1ccccc1O [compound 117] | 
 |  | > 10 µM | > 1000 nM | Cc1cc(NCC23CC(CO2)C3)nnc1-c1ccccc1O [compound 118] | 
 |  | > 10 µM | > 1000 nM | Cc1cc(NC[C@@H]2COCCO2)nnc1-c1ccccc1O [compound 120] | 
 |  | > 10 µM | > 1000 nM | Cc1cc(NC[C@@H]2CCCN2C)nnc1-c1ccccc1O [compound 121] | 
 |  | > 10 µM | > 1000 nM | Cc1cc(NC[C@H]2CCCN2C)nnc1-c1ccccc1O [compound 122] | 
 |  | > 10 µM | > 1000 nM | COC(C)(C)C(=O)Nc1cc(C)c(-c2ccccc2O)nn1 [compound 123] | 
 |  | > 10 µM | > 1000 nM | COC(C)(C)CNc1cc(C)c(-c2ccccc2O)nn1 [compound 124] | 
